In data set [1] the test system is KRAS-independent colon cancer cells. Description: Apoptosis by PARP and caspase-3 cleavage. It counts as cell-based, human. To be noted: except at very high doses. The method, then: (§1) (B) Effects of TAK1 inhibition on apoptosis and signaling in a representative panel of KRAS-independent and KRAS-dependent cell lines, 24 h after treatment. PARP and caspase-3 cleavage are shown as indicators of apoptosis, and AMPK threonine 172 (T172) phosphorylation is shown as a downstream indicator of TAK1 signaling activity. GAPDH serves as a gel loading control.
(§2) Pharmacologic TAK1 inhibition triggered apoptosis in KRAS-dependent colon cancer cells, as measured by PARP and caspase-3 cleavage (FIG. 3B). […] Thus, low concentrations of 5Z-7-oxozeaenol, in the range of 0.625 to 1.25 μM, promote apoptosis selectively in KRAS-dependent colon cancer cells.

The test system of data set [2] is TOP-FLASH reporter in YAPC cells. Nature of the data set: TOP-FLASH reporter in YAPC PDAC cells. It counts as cell-based. To be noted: YAPC cells, simultaneous treatment with BIO. An excerpt:
(E) TOP-FLASH reporter activity in KRAS mutant PDAC cell lines following inhibition of GSK-3 kinase with increasing concentrations of the small molecule inhibitor BIO. PANC-1 are KRAS-independent cells and YAPC are KRAS-dependent cells. Luminescence counts (photons/sec) are plotted on the y-axis. Data are representative of three independent experiments+/−SEM.
(F) TOP-FLASH reporter dose-response relationships in PANC-1 and YAPC cells following combined treatment with GSK-3 and TAK1 inhibitors (BIO and 5Z-7-Oxozeaenok respectively). Luminescence counts (photons/sec) are plotted on the y-axis. Data are represented as the means of triplicates+/−SEM.
To further test the role of Wnt signaling in this context, experiments were performed using two KRAS mutant pancreatic cancer (PDAC) cell lines, PANC-1 and YAPC, which are APC wild-type. PANC-1 cells are KRAS-independent, whereas YAPC cells are KRAS-dependent, a distinction that has been linked to increased KRAS signaling in YAPC cells (Singh et al., 2009). […] In contrast, PANC-1 cells undergo stronger induction of TOP-FLASH activity with combined GSK-3 and TAK1 inhibition (FIG. 11F, […]). […] Finally, a constitutively-activated mutant of β-catenin (CTNNB1-CA) containing S33Y and S45A missense mutations was introduced into KRAS-dependent SW620 cells. This mutant caused partial losses in both KRAS and TAK1 dependencies (FIGS. 13A-C). […]

In data set [3] the test system is HT29 cells expressing mutant KRAS (G12V) 4A or 4B. Description: Sensitivity of HT29 cells expressing mutant KRAS (G12V). Type of data set: cell-based, human. To be noted: HT29 cells expressing 4A or 4B splice isoform of mutant KRAS (G12V). The source says: (D) Forced overexpression of epitope-tagged oncogenic G12V mutated RAS protein isoforms in HT29 cells and sensitivity to TAK1 pharmacological inhibition with 5Z-7-oxozeaenol. Expression levels of exogenous and endogenous Ras proteins are shown by immunoblotting with a pan-ras monoclonal antibody. NRAS/KRAS4B are HA-tagged and KRAS4A is V5-tagged.
These cell lines are insensitive to 5Z-7-oxozeaenol.

The nature of data set [4]: Toxicity in treated xenograft mice. It counts as in vivo, NOD/SCID mice. To be noted: 15 mg/kg daily intraperitoneal. The method, then:
To validate the efficacy of 5Z-7-oxozeaenol in vivo, subcutaneous xenografted tumors were generated in NOD/SCID mice using four representative KRAS mutant cell lines: HCT8 and SW837 (KRAS-independent), and SK-CO-1 and SW620 (KRAS-dependent). Human colorectal cancer tumor cells were trypsinized and resuspended as single cell suspensions at 3×10^7 cells per ml in PBS. 100 μL (3×10^6 cells total) of this suspension were injected into opposite left and right flanks of NOD/SCID mice. All mice were housed in a pathogen-free environment. Tumor size was monitored daily and once tumor volume had reached approximately 200 mm^3, treatment with 5Z-7-oxozeaenol was initiated (7 to 14 days post-implantation). Mice were injected daily with 15 mg/kg 5Z-7-oxozeaenol. The drug was resuspended as a 25 mg/ml stock in DMSO. This was further diluted 10-fold in Arachis Oil (Sigma Inc.) to yield a 2.5 mg/ml stock in 10% DMSO. Approximately 120 μl of this stock was delivered to 20 g mice intraperitoneally. Alternatively, 10% DMSO in Arachis Oil was delivered as a vehicle control.
Palpable tumors were evident two weeks post-implantation, at which time mice were treated with either daily intraperitoneal 15 mg/kg of 5Z-7-oxozeaenol or vehicle alone (Rawlins et al., 1999).

The test system of another data set is Wnt target gene Axin 2. Description: Axin 2 protein expression, western blot. Type of data set: cell-based, human. The protocol: (C) Protein expression levels of the Wnt target gene Axin 2 following treatment of cells with the indicated concentrations. GAPDH serves as a loading control.
In contrast, KRAS depletion had no effect in one KRAS-independent line (SW1463) and increased TOP-FLASH activity in another (LS174T). […] To define the effect of TAK1 signaling on a physiological Wnt target gene, protein expression levels of the endogenous Axin 2 gene (Lustig et al., 2002) were measured following treatment with 5Z-7-oxozeaenol. […] Thus, both KRAS and TAK1 suppression selectively suppress β-catenin-mediated transcription and Wnt target gene expression in KRAS-dependent cells.
(§3) The following antibodies were used for western blotting in the above examples: KRAS OP-24, Pan-Ras OP-40 (Calbiochem); PARP (BD Pharmigen, 4C10-5); BMP-7 (Abcam); phospho-ERK, Axin2, phospho Smad1 and total Smad1/5/8, phospho- and total AMPK, phospho- and total AKT, cleaved Caspase-3 (Cell Signaling); GAPDH (Chemicon); E-Cadherin, beta-catenin (BD Pharmigen) Syk, TAK1, total ERK1 (Santa Cruz). For secreted BMP-7 levels, 1×10^6 HT29 cells stably expressing ER-KRAS(12V) were plated in 10 cm dishes. 24 h post-plating, 10 ml serum-free DME/F12 medium (Gibco) was added. Conditioned media was collected 24 h post-induction of ER-KRAS(12V) with 4-HT and concentrated to […], using AMICON® Ultra-4 Centrifugal Filter Units with 3 kDa membranes. […]

The test system of data set [5] is threonine 172 phosphorylation of the AMP-activated kinase (p-AMPK). Nature of the data set: AMPK threonine 172 phosphorylation, western blot. As to conditions: 24 h. It counts as cell-based, human. The protocol: as §1, §2, §3
On the technique in general: In western blotting, separated proteins are transferred to a membrane and probed.

The subject of data set [6] is non-small cell lung cancer (NSCLC) cells. Nature of the data set: Sensitivity of KRAS mutant NSCLC cell lines. It counts as cell-based. To be noted: 4 NSCLC cell lines, APC wild-type. The method, then: (B) 5Z-7-oxozeaenol IC50 values for KRAS mutant PDAC and NSCLC cell lines.
To determine if sensitivity to TAK1 inhibition is specific to colon cancer-derived cell lines, sensitivity to 5Z-7-oxozeaenol was assessed in 5 KRAS mutant pancreatic ductal adenocarcinoma (PDAC) and 4 non-small cell lung cancer (NSCLC) cells, all of which are APC wild-type (FIG. 9B).

On to `COc1cc(O)c2c(c1)/C=C/C[C@H](O)[C@H](O)C(=O)/C=C\C[C@H](C)OC2=O` [5Z-7-oxozeaenol], for which the “caspase-3 or PARP cleavage” value in data set [1] was “little or no”. In addition, the “effect on BIO-mediated TOP-FLASH induction” value in data set [2] was “abrogates the BIO-mediated TOP-FLASH induction”. In addition, in data set [3], the “reduction in the IC50 for 5Z-7-oxozeaenol” value is 3 fold. Besides, the “toxicity in treated mice” value in data set [4] is on record as “No overt toxicity”. For the same compound, the “Axin 2 expression” value with Wnt target gene Axin 2 (KRAS-dependent cells) is “dose-dependent reduction”. Further, the “Axin 2 expression, dose-dependent reduction” value in the data set on Wnt target gene Axin 2 (KRAS-independent cells) is given as “not”. Besides, the “threonine 172 phosphorylation of AMPK (p-AMPK)” value in data set [5] (KRAS-dependent colon cancer cells) was “reduced”. For the same compound, the AMPK phosphorylation entry in data set [5] (KRAS-independent cells) is reported as “unaffected”. For the same compound, the “sensitivity to 5Z-7-oxozeaenol” value in data set [6] is given as “largely refractory”.
